Patent publication US12655150B2 (Cedilla Therapeutics, Inc., priority 2021, dated 2026)

Test system: NCI-H226
Experiment: 72H TEAD Proliferation Assay (Cell Titer Glo 2.0)
Assay type: cell-based
Settings: CTG 2.0, cell line not given (NCI-H226 responsive, NCI-H28 non-responsive)
Experimental: 72H TEAD Proliferation Assay.
The effect of TEAD inhibition on cell proliferation was assayed using Cell Titer Glo (CTG) 2.0 to measure response in mesothelioma cell lines NCI-H226 (ATCC, #CRL-5826) and NCI-H28 (ATCC, #CRL-5820).
The 72H TEAD Proliferation assay utilizes Cell Titer-Glo 2.0 (Promega, #G9243) to measure the proliferation of cells in the presence or absence of compound. Cell Titer-Glo 2.0 determines the amount of viable cells by quantifying ATP (an indication of metabolically active cells). It utilizes the conversion of Luciferin to Oxyluciferin and a luminescent signal with the use of ATP to report the quantity of viable cells in culture. Within cells that are continually growing, ATP is being synthesized to meet their metabolic demands, meanwhile the opposite is true for cells that are dying or slowing down their proliferation and either no longer using ATP or are using less, respectively. The NF2-deficient NCI-H226 has been genetically validated as a cell line that is sensitive to TEAD inhibition. The NF2-wild type NCI-H28 has been genetically validated as a cell line that is not sensitive to TEAD inhibition and grows independently of TEAD activity.
Compounds were screened against the responsive NCI-H226 cell line to assess the compounds' ability to inhibit TEAD and cell growth. Compounds were also screened against the non-responsive NCI-H28 cell line to ascertain whether the inhibition of cell growth was due to inhibition of the target TEAD or whether the inhibition was due to off-target cytotoxicity.
• 1) Assay ready plates (ARPs) were prepared by Echo acoustic liquid handler. […] After CTG addition, plates were placed on shaker at 800 RPM for 15 minutes at room temperature and kept in the dark. Luminescence was measured using EnVision multilabel plate reader with ultra-sensitive detection module. • 9) Data Analysis: First background luminescence (no CTG wells) was subtracted from luminescence reading of all wells, then TO luminescence was subtracted from T72 luminescence. To compare anti-proliferative effect of compounds, GI50 was obtained by fitting dose response curves with nonlinear regression curve fit.

| GI50 (Homo sapiens, NCI-H226, 72 h) | GI50 | SMILES |
| --- | --- | --- |
| > 10000 nM | – | CC(C)(C)c1ccc(-n2ccc3cc(C(=O)O)ccc32)cc1 [I-101, 1-(4-(tert-Butyl)phenyl)-1H-indole-5-carboxylic acid] |
| 1000 to 5000 nM | – | O=C(O)c1ccc2c(c1)nc(-c1ccc(C(F)(F)F)cc1F)c1nccn12 [I-60, 4-(2-Fluoro-4-(trifluoromethyl)phenyl)imidazo[1,2-a]quinoxaline-7-carboxylic acid] |
| ≤ 1000 nM | – | O=C(O)c1ccc2c(c1)nc(-c1ccc(C(F)(F)F)cc1)c1cc(OC(F)F)cn12 [I-275, 2-(difluoromethoxy)-4-(4-(trifluoromethyl)phenyl)pyrrolo[1,2-a]quinoxaline-7-carboxylic acid] |
| ≤ 1000 nM | – | C=CC(=O)NCc1nc(-c2ccc(C(F)(F)F)cc2)c2cccnc2n1 [I-304, N-((4-(4-(trifluoromethyl)phenyl)pyrido[2,3-d]pyrimidin-2-yl)methyl)acrylamide] |
| 5000 to 10000 nM | – | O=C(O)c1ccc2c(c1)nc(-c1c(Cl)cc(C(F)(F)F)cc1Cl)c1cccn12 [I-201, 4-(2,6-Dichloro-4-(trifluoromethyl)phenyl)pyrrolo[1,2-a]quinoxaline-7-carboxylic acid] |
| 1000 to 5000 nM | – | COc1cc(-c2ccc(C(F)(F)F)cc2)nc2cc(C(=O)NC(CO)C3CCOCC3)ccc12 (single isomer, unassigned) [I-368, N-(2-hydroxy-1-(tetrahydro-2H-pyran-4-yl)ethyl)-4-methoxy-2-(4-(trifluoromethyl)phenyl)quinoline-7-carboxamide] |
| 5000 to 10000 nM | – | COc1cc(-c2ccc(C(F)(F)F)cc2)nc2cc(C(=O)N3CCC[C@@H]3CO)ccc12 [I-371, (R)-(2-(hydroxymethyl)pyrrolidin-1-yl) (4-methoxy-2-(4-(trifluoromethyl)phenyl)quinolin-7-yl)methanone] |
| > 10000 nM | – | O=C(O)c1ccc2c(c1)nc(NCCC(F)(F)F)c1cccn12 [I-107, 4-((3,3,3-Trifluoropropyl)amino)pyrrolo[1,2-a]quinoxaline-7-carboxylic acid] |
| ≤ 1000 nM | – | C[C@H](CO)NC(=O)c1ccc2c(c1)nc(-c1ccc(C(C)(C)C)cc1)c1cccn12 [I-191, (R)-4-(4-(tert-butyl)phenyl)-N-(1-hydroxypropan-2-yl)pyrrolo[1,2-a]quinoxaline-7-carboxamide] |
| ≤ 1000 nM | – | COc1cc(-c2ccc(C(F)(F)F)cc2)nc2cc(C(=O)N[C@@H](CO)Cc3ccccc3)ccc12 [I-369, (R)—N-(1-hydroxy-3-phenylpropan-2-yl)-4-methoxy-2-(4-(trifluoromethyl)phenyl)quinoline-7-carboxamide] |
| 1000 to 5000 nM | – | O=C(O)c1ccc2c(N3CCCCC3)cc(-c3ccc(C(F)(F)F)cc3)nc2c1 [I-391, 4-(piperidin-1-yl)-2-(4-(trifluoromethyl)phenyl)quinoline-7-carboxylic acid] |
| 1000 to 5000 nM | – | C=CC(=O)NCc1cn2ccnc2c(OCc2cccc(C(F)(F)F)c2)n1 [I-294, N-((8-((3-(trifluoromethyl)benzyl)oxy)imidazo[1,2-a]pyrazin-6-yl)methyl) acrylamide] |
| 1000 to 5000 nM | – | O=C(O)c1ccc2c(c1)nc(NCCC(F)(F)C(F)(F)F)c1cccn12 [I-121, 4-((3,3,4,4,4-Pentafluorobutyl)amino)pyrrolo[1,2-a]quinoxaline-7-carboxylic acid] |
| ≤ 1000 nM | – | C=CC(=O)NCc1nc(-c2ccc(C(F)(F)F)cc2)cn2ccnc12 [I-408, N-((6-(4-(trifluoromethyl)phenyl)imidazo[1,2-a]pyrazin-8-yl)methyl)acrylamide] |
| ≤ 1000 nM | – | Cc1cc(-c2ccc(C(F)(F)F)cc2)nc2cc(C(=O)NC(C)CO)ccc12 (stereo not drawn) [I-260, N-(1-hydroxypropan-2-yl)-4-methyl-2-(4-(trifluoromethyl)phenyl)quinoline-7-carboxamide] |
| ≤ 1000 nM | – | COc1cc(-c2ccc(C(F)(F)F)cc2)nc2cc(C(=O)N[C@@H](C)c3cccc(O)c3)ccc12 [I-349, (S)—N-(1-(3-hydroxyphenyl)ethyl)-4-methoxy-2-(4-(trifluoromethyl)phenyl)quinoline-7-carboxamide] |
| ≤ 1000 nM | – | C=CC(=O)NCc1nc(-c2ccc(OC(F)(F)F)cc2)c2ccc(F)cc2n1 [I-447, N-((7-fluoro-4-(4-(trifluoromethoxy)phenyl)quinazolin-2-yl)methyl)acrylamide] |
| 5000 to 10000 nM | – | O=C(O)C1CCN(c2cn3ccnc3c(-c3ccc(C(F)(F)F)cc3)n2)C1 (stereo not drawn) [I-234, 1-(8-(4-(Trifluoromethyl)phenyl)imidazo[1,2-a]pyrazin-6-yl)pyrrolidine-3-carboxylic acid] |

| GI50 (Homo sapiens, NCI-H226, 72 h) | GI50 | SMILES |
| --- | --- | --- |
| ≤ 1000 nM | – | C#Cc1cc(-c2ccc(C(F)(F)F)cc2)nc2cc(C(=O)O)ccc12 [I-402, 4-ethynyl-2-(4-(trifluoromethyl)phenyl)quinoline-7-carboxylic acid] |
| 1000 to 5000 nM | – | O=C(O)c1ccc2c(c1)nc(N1CCC3(CCOCC3)CC1)c1cccn12 [I-27, 4-(3-Oxa-9-azaspiro [5.5]undecan-9-yl) pyrrolo[1,2-a] quinoxaline-7-carboxylic acid] |
| ≤ 1000 nM | – | C=CC(=O)Nc1cn2cccc2c(-c2ccc(C3(C(F)(F)F)CC3)cc2)n1 [I-102, N-(1-(4-(1-(trifluoromethyl)cyclopropyl)phenyl)pyrrolo[1,2-a]pyrazin-3-yl)acrylamide] |
| 1000 to 5000 nM | – | CNS(=O)(=O)c1ccc2c(c1)nc(-c1ccc(C(C)(C)C)cc1)c1cccn12 [I-310, 4-(4-(tert-butyl)phenyl)-N-methylpyrrolo[1,2-a]quinoxaline-7-sulfonamide] |
| – | ≤ 1000 nM | COc1cc(-c2ccc(C(F)(F)F)cc2)nc2cc(C(=O)N3CCC3CO)ccc12 (single isomer, unassigned) [I-373, (2-(hydroxymethyl)azetidin-1-yl) (4-methoxy-2-(4-(trifluoromethyl)phenyl)quinolin-7-yl)methanone] |
| ≤ 1000 nM | – | CC(C)Oc1cc(-c2ccc(C(F)(F)F)cc2)nc2cc(C(=O)O)ccc12 [I-394, 4-isopropoxy-2-(4-(trifluoromethyl)phenyl)quinoline-7-carboxylic acid] |
| ≤ 1000 nM | – | C=CC(=O)Nc1ccc2c(C)cc(-c3ccc(C(F)(F)F)cc3)nc2c1 [I-85, N-(4-Methyl-2-(4-(trifluoromethyl)phenyl)quinolin-7-yl)acrylamide] |
| ≤ 1000 nM | – | Cc1nc(-c2ccc(C(F)(F)F)cc2)nc2cc(C(=O)N[C@H](C)CO)ccc12 [I-436, (R)—N-(1-hydroxypropan-2-yl)-4-methyl-2-(4-(trifluoromethyl)phenyl)quinazoline-7-carboxamide] |
| 1000 to 5000 nM | – | CN(C)c1cc(-c2ccc(C(F)(F)F)cc2)nc2cc(C(=O)O)ccc12 [I-392, 4-(dimethylamino)-2-(4-(trifluoromethyl)phenyl)quinoline-7-carboxylic acid] |
| ≤ 1000 nM | – | C=CC(=O)NCc1cn2ccnc2c(-c2ccc(SC(F)(F)F)cc2)n1 [I-448, N-((8-(4-((trifluoromethyl)thio)phenyl)imidazo[1,2-a]pyrazin-6-yl)methyl)acrylamide] |
| ≤ 1000 nM | – | CC[C@H](CO)NC(=O)c1ccc2c(OC)cc(-c3ccc(C(F)(F)F)cn3)nc2c1 [I-358, (R)—N-(1-hydroxybutan-2-yl)-4-methoxy-2-(5-(trifluoromethyl)pyridin-2-yl)quinoline-7-carboxamide] |
| 5000 to 10000 nM | – | O=C(O)c1ccc2c(C3CCOCC3)cc(-c3ccc(C(F)(F)F)cc3)nc2c1 [I-390, 4-(tetrahydro-2H-pyran-4-yl)-2-(4-(trifluoromethyl)phenyl)quinoline-7-carboxylic acid] |
| ≤ 1000 nM | – | Cc1cc2c(-c3ccc(C(F)(F)F)cn3)nc3cc(C(=O)O)ccc3n2c1 [I-405, 2-Methyl-4-(5-(trifluoromethyl)pyridin-2-yl)pyrrolo[1,2-a]quinoxaline-7-carboxylic acid] |
| 1000 to 5000 nM | – | C=CC(=O)NCc1cn2ccnc2c(-c2ccc(C(F)(F)F)cn2)n1 [I-313, N-((8-(5-(trifluoromethyl)pyridin-2-yl)imidazo[1,2-a]pyrazin-6-yl)methyl)acrylamide] |
| ≤ 1000 nM | – | CC(NC(=O)N1CCc2c(cccc2-c2ccc(C(F)(F)F)cc2)C1)c1ccccn1 (stereo not drawn) [I-179, N-(1-(pyridin-2-yl)ethyl)-5-(4-(trifluoromethyl)phenyl)-3,4-dihydroisoquinoline-2(1H)-carboxamide] |
| ≤ 1000 nM | – | CC[C@H](CO)NC(=O)c1ccc2c(OC)cc(-c3ccc(C(F)(F)F)cc3)nc2c1 [I-326, (R)—N-(1-hydroxybutan-2-yl)-4-methoxy-2-(4-(trifluoromethyl)phenyl)quinoline-7-carboxamide] |
| 1000 to 5000 nM | – | O=C(O)c1ccc2c(c1)nc(NC1CCC(C(F)(F)F)CC1)c1cccn12 (stereo not drawn) [I-18, 4-((4-(Trifluoromethyl)cyclohexyl)amino)pyrrolo[1,2-a]quinoxaline-7-carboxylic acid] |
| ≤ 1000 nM | – | COc1cc(-c2ccc(C(F)(F)F)cc2)nc2cc(C(=O)N[C@@H](C)c3cccc(N)c3)ccc12 [I-350, (S)—N-(1-(3-aminophenyl)ethyl)-4-methoxy-2-(4-(trifluoromethyl)phenyl)quinoline-7-carboxamide] |
